Test results: ChEMBL document CHEMBL2417433, “Synthesis and biological evaluations of a monomethylauristatin E glucuronide prodrug for selective cancer chemotherapy” (Eur J Med Chem, 2013)
The source made the active and inactive calls. No cut-off for these calls is given here. Non-standard residues stand in square brackets, D forms with d. Residues, ends and D or L forms follow the SMILES beside them. *: point of attachment. Dolaproine = CO[C@@H]([C@@H]1CCCN1)[C@@H](C)C(=O)O; Dil = CC[C@H](C)[C@H](NC)[C@@H](CC(=O)O)OC; X1 = C[C@@H](N*)[C@@H](O)c1ccccc1; NMeV = CN[C@H](C(=O)O)C(C)C

Key:
KB [1] = assay: Antiproliferative activity against human KB cells after 4 days by XTT assay; format: functional, cell-based; conditions: 96 h
Cancer cell lines = assay: Cytotoxicity against human non-small cell lung cancer cells at 0.5 to 1 nM after 4 days by XTT assay; format: functional, cell-based
[2] = test system: Lewis lung carcinoma cell line; assay: Antitumor activity against mouse LLC cells allografted in C57/BL6 mouse assessed as reduction in tumor weight at 0.1 mg/kg, iv administered on day 7, 11 and 14 post transplantation measured on day 20 relative to control; format: functional
MDA-MB-231 [3] = assay: Antiproliferative activity against human MDA-MB-231 cells after 4 days by XTT assay; format: functional, cell-based; conditions: MDA-MB-231, 96 h
A549 [4] = assay: Antiproliferative activity against human A549 cells after 4 days by XTT assay; format: functional, cell-based; conditions: A549, 96 h
KB [5] = assay: Ratio of IC50 for human KB cells to IC50 for human KB cells in presence of Escherichia coli beta-glucuronidase; format: functional
[6] = Cytotoxicity against human non-small cell lung cancer cells at 1 nM after 4 days by XTT assay in presence of Escherichia coli beta-glucuronidase; format: functional, Cancer cell lines
Serum = assay: Stability in bovine serum at 0.5 mg after 48 hrs by HPLC method; format: ADME, cell-free, Bos taurus; conditions: cattle
A549 [7] = assay: Antiproliferative activity against human A549 cells after 4 days by XTT assay in presence of Escherichia coli beta-glucuronidase; format: functional, cell-based; conditions: A549, 96 h
KB [8] = assay: Antiproliferative activity against human KB cells after 4 days by XTT assay in presence of Escherichia coli beta-glucuronidase; format: functional, cell-based; conditions: 96 h
MDA-MB-231 [9] = assay: Ratio of IC50 for human MDA-MB-231 cells to IC50 for human MDA-MB-231 cells in presence of Escherichia coli beta-glucuronidase; format: functional
MDA-MB-231 [10] = assay: Antiproliferative activity against human MDA-MB-231 cells after 4 days by XTT assay in presence of Escherichia coli beta-glucuronidase; format: functional, cell-based; conditions: MDA-MB-231, 96 h
[11] = Prodrug conversion in phosphate buffer at pH 7 assessed as MMAE and 4-hydroxy-3-nitrobenzyl alcohol formation after 40 mins by HPLC method in presence of Escherichia coli beta-glucuronidase; format: physicochemical; conditions: pH 7, 40 min
[12] = test system: Lewis lung carcinoma cell line; assay: Antitumor activity against mouse LLC cells allografted in C57/BL6 mouse assessed as reduction in tumor weight at 0.5 mg/kg, iv administered on day 7, 11 and 14 post transplantation measured on day 20 relative to control; format: functional
A549 [13] = assay: Ratio of IC50 for human A549 cells to IC50 for human A549 cells in presence of Escherichia coli beta-glucuronidase; format: functional
Mus musculus = assay: Toxicity in mouse LLC cells allografted C57/BL6 mouse model assessed as change in body weight at 0.5 mg/kg, iv administered on day 7, 11 and 14 post transplantation measured on day 20; format: organism-based; parameters: dose 0.5 mg/kg, route intravenous; conditions: in vivo

SMILES | IC50 (KB [1]) | Activity (Cancer cell lines) | fold change (FC) [2] | IC50 (MDA-MB-231 [3]) | IC50 (A549 [4]) | Ratio IC50 (KB [5]) | Activity [6] | Stability (Serum) | IC50 (A549 [7]) | IC50 (KB [8]) | Ratio IC50 (MDA-MB-231 [9]) | IC50 (MDA-MB-231 [10]) | Drug metabolism [11] | fold change (FC) [12] | Ratio IC50 (A549 [13]) | Activity (Mus musculus)
CC[C@H](C)[C@@H]([C@@H](CC(=O)N1CCC[C@H]1[C@H](OC)[C@@H](C)C(=O)N[C@H](C)[C@@H](O)c1ccccc1)OC)N(C)C(=O)[C@@H](NC(=O)[C@@H](NC)C(C)C)C(C)C (H-[NMeV]V[Dil][Dolaproine]-X1) | 0.19 nM | Active | 1.5 | 0.25 nM | 0.59 nM |  |  |  |  |  |  |  |  |  |  | 
CC[C@H](C)[C@@H]([C@@H](CC(=O)N1CCC[C@H]1[C@H](OC)[C@@H](C)C(=O)N[C@H](C)[C@@H](O)c1ccccc1)OC)N(C)C(=O)[C@@H](NC(=O)[C@H](C(C)C)N(C)C(=O)OCc1ccc(O[C@@H]2O[C@H](C(=O)O)[C@@H](O)[C@H](O)[C@H]2O)c([N+](=O)[O-])c1)C(C)C | 20.8 nM | inactive |  | 20.9 nM | 23.7 nM | 40 | 75% | Stable | 0.52 nM | 0.16 nM | 40 | 0.22 nM | Active | 1.5 | 40 | Non-toxic
